“And” between values parts separate entries of the source, which are not always exact repeats. Identical values can stand only once. Like-named read-outs stand apart in the source and are kept apart here.
Key:
HIV-1 protease [1] = target: T1, HIV-1 protease (Human immunodeficiency virus type 1 group M subtype B, UniProt P04585); test: biochemical
How it was run: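 Percent inhibition came from fluorescence of FITC-tagged cleavage product, separated by filtration from uncleaved substrate captured on streptavidin-coated beads. The enzyme (10 μl of 0.1 μM) and compound acted on a biotin/FITC dual-labelled peptide for one hour at room temperature in the dark. The reaction ran in 0.1 M sodium acetate, pH 5.5, with 1.0 M NaCl and 0.05% NP-40.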

HIV-1 protease [2] = target: T1, HIV-1 protease; test: biochemical; remark: listed apart in the source
How it was run: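 Biotinylated, FITC-labelled peptide substrate cleaved in 0.1 M sodium acetate pH 5.5, 1.0 M NaCl, 0.05% NP-40, room temperature. Filtered labelled product read by fluorescence; nonlinear least-squares fit.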

[3] = Table I, Dose 0.123 μM, read-out: Protease % Inhib
[4] = Table I, Dose 0.370 μM, read-out: Protease % Inhib
[5] = Table I, Dose 1.100 μM, read-out: Protease % Inhib
[6] = Table I, Dose 3.300 μM, read-out: Protease % Inhib
[7] = Table I, Dose 10.000 μM, read-out: Protease % Inhib
[8] = Table I, Dose 30.000 μM, read-out: Protease % Inhib
[9] = Table I, read-out: HIV Protease FITC Assay Ki

| SMILES | inhibition at 0.123 µM (HIV-1 protease [1]; [3]) [%] | inhibition at 0.37 µM (HIV-1 protease [1]; [4]) [%] | inhibition at 1.1 µM (HIV-1 protease [1]; [5]) [%] | inhibition at 3.3 µM (HIV-1 protease [1]; [6]) [%] | inhibition at 10 µM (HIV-1 protease [1]; [7]) [%] | inhibition at 30 µM (HIV-1 protease [1]; [8]) [%] | Ki (HIV-1 protease [2]; [9]) | also measured |
| --- | --- | --- | --- | --- | --- | --- | --- | --- |
| CC[C@H](Cc1ccccc1)c1cc(O)c(C(c2cccc(NS(=O)(=O)c3cn(C)cn3)c2)C2CC2)c(=O)o1 (single isomer, unassigned) [Example 137, N-(3-(R or S)-{Cyclopropyl-[6-(1-(R)-ethylphenethyl)-4-hydroxy-2-oxo-2H-pyran-3-yl]-methyl}-phenyl)-1-methyl-1H-imidazole-4-sulfonamide] | 98.8 | 91.5 | 101 | 110 | 98.2 | 93.8 | 0.52 nM and 0.7 nM | – |
| Cn1cnc(S(=O)(=O)Nc2cccc(C(C3=C(O)CC(CCC4CC4)(CCC4CC4)OC3=O)C(C)(C)C)c2)c1 (stereo not shown) [Example 264, N-[3-(1-[6,6-Bis-(2-cyclopropyl-ethyl)-5,6-dihydro-4-hydroxy-2-oxo-2H-pyran-3-yl]-2,2-dimethyl-propyl)phenyl]-1-methyl-1H-imidazole-4-sulfonamide] | 67.2 | 75 | 67.7 | 57.6 | 53.7 | 64.6 | 3.7 nM | – |
| O=c1oc2c(c(O)c1C(c1cccc(CS(=O)(=O)c3ccccc3)c1)C1CC1)CCCCCC2 (stereo not shown) [Example 10, 3-[Cyclopropyl[3-[(phenylsulfonyl)methyl]phenyl]methyl]-5,6,7,8,9,10-hexahydro-4-hydroxy-2H-Cycloocta[b]pyran-2-one] | – | – | – | – | – | – | – | inhibition at 0.123 µM (HIV-1 protease [1]; read-out: Protease % Inhib): 102%; inhibition at 0.37 µM (HIV-1 protease [1]; read-out: Protease % Inhib): 112%; inhibition at 1.1 µM (HIV-1 protease [1]; read-out: Protease % Inhib): 116%; inhibition at 3.3 µM (HIV-1 protease [1]; read-out: Protease % Inhib): 119%; inhibition at 10 µM (HIV-1 protease [1]; read-out: Protease % Inhib): 129%; inhibition at 30 µM (HIV-1 protease [1]; read-out: Protease % Inhib): 130%; Ki (HIV-1 protease [2]; read-out: HIV Protease FITC Assay Ki): 5.71 nM |
| CCCC1(CCC)CC(O)=C(C(CC)c2cccc(NS(=O)(=O)c3cccc4cccnc34)c2)C(=O)O1 (single isomer, unassigned) [Example 54, (S or R)-N-[3-[1-(4-Hydroxy-2-oxo-6,6-dipropyl-5,6-dihydro-2H-pyran-3-yl)-propyl]-phenyl]-8-quinolinesulfonamide] | – | – | – | – | – | – | 13.3 nM | PROTEASE % INHIB. (HIV-1 protease [1]; Table I, Dose 0.123 μM): 46.64%; PROTEASE % INHIB. (HIV-1 protease [1]; Table I, Dose 0.370 μM): 72.41%; PROTEASE % INHIB. (HIV-1 protease [1]; Table I, Dose 1.100 μM): 87.91%; PROTEASE % INHIB. (HIV-1 protease [1]; Table I, Dose 3.300 μM): 89.11%; PROTEASE % INHIB. (HIV-1 protease [1]; Table I, Dose 10.000 μM): 87.77%; PROTEASE % INHIB. (HIV-1 protease [1]; Table I, Dose 30.000 μM): 91.99% |
| O=c1oc(C(CC2CC2)CC2CC2)cc(O)c1C(c1cccc(NS(=O)(=O)c2ncc[nH]2)c1)C1CC1 (stereo not shown) [Example 102, N-(3-{Cyclopropyl-[6-(2-cyclopropyl-1-cyclopropylmethyl-ethyl)-4-hydroxy-2-oxo-2H-pyran-3-yl]-methyl}-phenyl)-1H-imidazole-2-sulfonamide] | 87.1 | 92.7 | 102 | 110 | 117 | 108 | 0.7 nM | – |
| CC[C@@H](Cc1ccccc1)c1cc(O)c(C(c2cccc(NS(=O)(=O)c3cn(C)cn3)c2)C2CC2)c(=O)o1 (single isomer, unassigned) [Example 140, N-(3-(R or S)-{Cyclopropyl-[6-(1-(S)-ethylphenethyl)-4-hydroxy-2-oxo-2H-pyran-3-yl]-methyl}-phenyl)-1-methyl-1H-imidazole-4-sulfonamide] | – | – | – | – | – | – | 1.44 nM | PROTEASE % INHIB. (HIV-1 protease [1]; Table I, Dose 0.123 μM): 103.22%; PROTEASE % INHIB. (HIV-1 protease [1]; Table I, Dose 0.370 μM): 96.01%; PROTEASE % INHIB. (HIV-1 protease [1]; Table I, Dose 1.100 μM): 107.37%; PROTEASE % INHIB. (HIV-1 protease [1]; Table I, Dose 3.300 μM): 112.51%; PROTEASE % INHIB. (HIV-1 protease [1]; Table I, Dose 10.000 μM): 112.53%; PROTEASE % INHIB. (HIV-1 protease [1]; Table I, Dose 30.000 μM): 119.14% |
| CCCC1(CCC)CC(O)=C(C(c2cccc(NS(=O)(=O)c3ccc(F)cc3)c2)C2CC2)C(=O)O1 (stereo not shown) [Example 51, 4-Fluoro-N-[3-[1-(4-hydroxy-2-oxo-6,6-dipropyl-5,6-dihydro-2H-pyran-3-yl)-cyclopropylmethyl]-phenyl]-benzenesulfonamide] | 98.7 | 104 | 105 | 101 | 95.1 | 79.7 | 2.66 nM | – |
| COCCOCCOCCOc1ccc2c(O)c(C(c3cccc(NS(=O)(=O)c4ccccn4)c3)C3CC3)c(=O)oc2c1 (stereo not shown) [Example 154, N-(3-{Cyclopropyl-[7-(2-(2-(2-methoxyethoxy)-ethoxy)ethoxy)-4-hydroxycoumarin-3-yl]-methyl}-phenyl)-2-pyridinesulfonamide] | – | – | – | – | – | – | – | inhibition at 0.123 µM (HIV-1 protease [1]; read-out: Protease % Inhib): 99.8%; inhibition at 0.37 µM (HIV-1 protease [1]; read-out: Protease % Inhib): 98.2%; inhibition at 1.1 µM (HIV-1 protease [1]; read-out: Protease % Inhib): 99.5%; inhibition at 3.3 µM (HIV-1 protease [1]; read-out: Protease % Inhib): 97.6%; inhibition at 10 µM (HIV-1 protease [1]; read-out: Protease % Inhib): 104%; inhibition at 30 µM (HIV-1 protease [1]; read-out: Protease % Inhib): 99.2%; Ki (HIV-1 protease [2]; HIV Protease FITC Assay Ki): 0.22 nM |
| CCC(CCNS(=O)(=O)c1cn(C)cn1)c1cc(O)c(C(c2cccc(NS(=O)(=O)c3cn(C)cn3)c2)C2CC2)c(=O)o1 (stereo not shown) [Example 107, N-(3-{Cyclopropyl-[6-(1-ethyl-3-{1-methyl-1H-imidazole-4-sulfonylamino}-propyl)-4-hydroxy-2-oxo-2H-pyran-3-yl]-methyl}-phenyl)-1-methyl-1H-imidazole-4-sulfonamide] | 92.7 | 99.2 | 105 | 103 | 110 | 103 | 0.89 nM and 0.7 nM | – |
| CCC(C1=C(O)CC(CC(C)C)(CC(C)C)OC1=O)c1cccc(NS(=O)(=O)c2cn(C)cn2)c1 (stereo not shown) [Example 47, N-[3-[1-(4-hydroxy-6,6-diisobutyl-2-oxo-5,6-dihydro-2H-pyran-3-yl)-propyl]-phenyl]-1-methyl-1H-imidazole-4-sulfonamide] | 66.3 | – | 94.7 | 101 | 98.7 | 84.5 | 3 nM and 2.98 nM | inhibition at 0.87 µM (HIV-1 protease [1]; Table I, Dose 0.870 μM, read-out: Protease % Inhib): 86.8% |
| CCCC1(CCc2ccccc2)CC(O)=C(C(c2cccc(NS(=O)(=O)c3ccc(C(F)(F)F)cn3)c2)C(C)(C)C)C(=O)O1 (stereo not shown) [Example 293, 5-Trifluoromethyl-N-[3-[1-[5,6-dihydro-4-hydroxy-2-oxo-6-(2-phenethyl)-6-n-propyl-2H-pyran-3-yl]-2,2-dimethylpropyl]-phenyl]-2-pyridinesulfonamide] | – | – | – | – | – | – | – | PROTEASE % INHIB. (HIV-1 protease [1]; Table II, enzyme HIV-1, DOSE 0.123 (unit not given)): 53.45%; PROTEASE % INHIB. (HIV-1 protease [1]; Table II, enzyme HIV-1, DOSE 0.370 (unit not given)): 77.51%; PROTEASE % INHIB. (HIV-1 protease [1]; Table II, enzyme HIV-1, DOSE 1.100 (unit not given)): 94.18%; PROTEASE % INHIB. (HIV-1 protease [1]; Table II, enzyme HIV-1, DOSE 3.300 (unit not given)): 103.03%; PROTEASE % INHIB. (HIV-1 protease [1]; Table II, enzyme HIV-1, DOSE 10.000 (unit not given)): 97.41%; PROTEASE % INHIB. (HIV-1 protease [1]; Table II, enzyme HIV-1, DOSE 30.000 (unit not given)): 92.01%; Ki (HIV-1 protease [2]; Table II, enzyme HIV-1, read-out: FITC KI): 4.3 nM |
| Cc1ccc(S(=O)(=O)Cc2cccc(C(c3c(O)c4c(oc3=O)CCCCCC4)C3CC3)c2)cc1 (stereo not shown) [Example 13, 3-[cyclopropyl[3-[(4-methylphenylsulfonyl)methyl]phenyl]methyl]-5,6,7,8,9,10-hexahydro-4-hydroxy-2H-cycloocta[b]pyran-2-one] | 68.9 | 88.1 | 94 | 95.5 | 98.6 | 104 | 4.15 nM | – |
| CCCC1(CCC)CC(O)=C(C(CC)c2cccc(NS(=O)(=O)c3ccc(F)cc3)c2)C(=O)O1 (stereo not shown) [Example 45, 4-Fluoro-N-[3-[1-(4-hydroxy-2-oxo-6,6-dipropyl-5,6-dihydro-2H-pyran-3-yl)-propyl]-phenyl]-benzenesulfonamide] | 82.2 | 94.4 | 101 | 103 | 89.8 | 67.5 | 4.78 nM | – |
